Tests used:
[1] = Liver microsomal metabolic stability test (human); format: in vitro ADME; conditions: NADPH, 37° C.; for half-life at 1 µM / microsomal CLint at 1 µM: pH 7.4; for half-life at 1 µM: read-out: Human hepatic microsomal metabolic half-life; for microsomal CLint at 1 µM: read-out: Intrinsic clearance of human hepatic microsomes in body
Description: (§1) 1) Preparation of stock and working solutions of the compound: An appropriate amount of the compound was weighed and dissolved in DMSO to give a 10 mM stock solution, and the stock solution was further diluted with ACN to give a 100 µM working solution.
Each positive control standard was dissolved separately with DMSO to obtain a 10 mM stock solution and further diluted with ACN to obtain a 100 µM working solution.
(§2) 73.21 g of dipotassium hydrogen phosphate trihydrate and 10.78 g of potassium dihydrogen phosphate were dissolved in 4000 mL of ultrapure water. The pH of the solution was adjusted to 7.40 ± 0.10 with 10% phosphoric acid or 1 M potassium hydroxide and the final concentration was 100 mM.
Human liver microsomes (20 mg/mL) were diluted with the phosphate buffer solution to obtain 0.56 mg/mL of a liver microsomal working solution.
(§3) NADPH was weighed and dissolved in the phosphate buffer solution to obtain a 10 mM solution.
1) Preparation of Blank: 54 µL of human liver microsomal working solution was transferred to a blank sample plate, then added with 6 µL of NADPH working solution, and finally added with 180 µL of ACN solution containing 200 ng/mL of tolbutamide and labetalol (internal standard) to precipitate the protein.
445 µL of human liver microsomal working solution (MWS) was added to the cofactor-free incubation sample plate, pre-incubated at 37° C. for 10 min, and then fully mixed after the addition of 5 µL of working solution of positive control or the compound to be tested.
50 µL of phosphate buffer solution was added to the above incubation sample plate, fully mixed and incubated at 37° C. for 60 min.
After the incubation is complete, 60 µL of incubation solution was taken into a pellet plate, and then added with 180 µL of ACN solution containing 200 ng/mL of tolbutamide and labetalol (internal standard) to precipitate the protein.
(§4) 445 µL of human/rat liver microsomal working solution (MWS) was added to the incubation sample plate, pre-incubated at 37° C. for 10 min, and then fully mixed after the addition of 5 µL of working solution of positive control or the compound to be tested.
(§5) 54 µL of the above intermediate working solution was transferred to the zero-time sample plate (T0), then added with 180 µL of ACN solution containing 200 ng/mL tolubutamide and labetalol (internal standard) to precipitate the protein, and finally added with 6 µL of NADPH working solution.
(§6) 44 µL of NADPH working solution was added to 396 µL of microsomal working solution containing positive control or the compound to be tested (remaining solution after the operation of steps (1) and (2)) and incubated at 37° C. At the time points of 5, 15, 30, 45, and 60 min, 60 uL of incubation solution was taken and added to 180 µL of ACN solution containing 200 ng/mL of tolubutamide and labetalol (internal standard) to precipitate the protein.
(§7) Centrifuged collected supernatants were analyzed with LC-MS/MS after appropriate dilution.
(§8) The peak area ratio of the analyte to the internal standard was used to calculate the relative percentage content of the compound after incubation and to perform exponential function fitting. The calculation formula was as follows: […]
(§9) wherein k was the rate constant obtained by linear regression taking the concentration logarithm as the ordinate and the incubation time as the absciss.
(§10) wherein CLint was the Intrinsic clearance.

[2] = Liver microsomal metabolic stability test (rat); format: in vitro ADME; conditions: NADPH, 37° C.
Description: as §1, §2, §3, §4, §5, §6, §7, §8, §9, §10

[3] = human liver microsomes, 0-60 min

Row | Compound | half-life at 1 µM [1, 3] [h] | microsomal CLint at 1 µM ([1]; human liver microsomes) [µL/min/mg] | Intrinsic clearance of rat hepatic microsomes in body [2] [µL/min/mg] | Rat hepatic microsomal metabolic half-life ([2]; rat liver microsomes, 0-60 min) [h] | Intrinsic clearance of human hepatic microsomes in body [1] [µL/min/mg] | Human hepatic microsomal metabolic half-life [1, 3] [h] | half-life at 1 µM ([2]; pH 7.4, rat liver microsomes, 0-60 min, read-out: Rat hepatic microsomal metabolic half-life) [h] | microsomal CLint at 1 µM ([2]; pH 7.4, rat liver microsomes, read-out: Intrinsic clearance of rat hepatic microsomes in body) [µL/min/mg]
1 | [2H]C1([2H])c2ncccc2[C@@]([2H])(N)C12CCN(c1ncc(Sc3ccnc(N)c3Cl)c3nccn13)CC2 [Compound 12] | 1.28 | 18 |  |  |  |  |  | 
2 | Nc1nccc(Sc2cnc(N3CCC4(CC3)Cc3ncccc3[C@H]4N)n3ccnc23)c1Cl [Compound 1] |  |  | 19 | 1.17 | 26 | 0.9 |  | 
3 | [2H][C@@]1(N)c2cccnc2CC12CCN(c1ncc(Sc3ccnc(N)c3Cl)c3nccn13)CC2 [Compound 10] | 1.2 | 19 |  |  |  |  | 2.03 | 11.4

Reference: patent publication US20230242551A1, “ISOTOPE-SUBSTITUTED SPIRO AROMATIC RING COMPOUND AND APPLICATION THEREOF” (ETERN BIOPHARMA (SHANGHAI) CO., LTD., priority 2020, published 2023)
